Where “and” joins values, the source holds several entries; their conditions need not be identical. Identical values can stand only once. Square brackets hold non-standard residues; d marks the D form. Peptide text beside a SMILES is read from it. dGly(2-thienyl) = N[C@@H](C(=O)O)c1cccs1; Gly(N-cPent) = O=C(O)CNC1CCCC1; βAla = NCCC(=O)O
Legend:
[1] = tested on: isolated porcine basilar artery (endothelin-1-induced contraction); test: Activities against endothelin-induced contraction of isolated porcine basilar artery; parameters: species or system pig; conditions: compound 2 μM
Method: Activities aqainst endothelin-induced contraction of isolated porcine basilar artery
The arteria basilaris of pig was extracted, and then a ring preparation with a width of 4 mm was prepared. After denuded the endothelial cells, the preparation was hanged in a 5 ml organ bath filled with a Krebs.Henseleit solution saturated with a gas mixture of 95% O2 and 5% CO2, and the change in the tension was isometrically measured and recorded.
(§1) Endothelin-1 was added into the organ bath in a cumulatively increasing manner, whereby the influence of the compound of the present invention to the concentration-response curve for endothelin-1 was examined. The compound of the present invention was added into the organ bath 20 minutes prior to the addition of endothelin-1.

[2] = tested on: isolated guinea pig trachea (endothelin-1-induced contraction); test: Activities against endothelin-induced contraction of isolated guinea pig trachea; conditions: for shift of the concentration-response curve for endothelin-1: added 20 minutes prior to endothelin-1
Method: Activities aqainst endothelin-induced contraction of isolated guinea pig trachea
The trachea of a guinea pig was extracted, and the trachea was cut into rings to afford the preparation. A preparation having the endothelial cells denuded, was hanged in a 5 ml organ bath filled with a Krebs.Henseleit solution saturated with a gas mixture of 95% O2 and 5% CO2, and the change in the tension was isometrically measured and recorded.
as §1, with “manner, and” for “manner, whereby”, “for endothelin” for “for endothelin-1”

[3] = tested on: isolated rat heart (endothelin-1-induced increase of perfusion pressure); test: Effects on the increased perfusion pressure induced by endothelin in isolated rat heart
Method: Effects on the increased perfusion pressure induced by endothelin in isolated rat heart
The heart of a male Sprague Dohrie (SD) rat was extracted, and the perfusion pressure was measured and recorded by a Langendorff's method. The perfusion pressure was evaluated on the basis that the state where a Krebs.Henseleit solution saturated with a gas mixture of 95% O2 and 5% CO2 was infused at a rate of 10 ml/min, was taken as a standard.
Endothelin-1 was cumulatively added to the perfusate, whereby the influence of the compound to the concentration-response curve for endothelin-1 was examined. The compound of the present invention which was dissolved in the perfusate had been infused from 20 minutes prior to the addition of endothelin-1 till just after finishing measurement of the concentration-response curve for endothelin-1.

[4] = biological target: T1, endothelin receptor (membrane of smooth muscle tissue of porcine aorta) (Sus scrofa, UniProt Q29010); test: Endothelin binding inhibition test (125I-endothelin-1, porcine aorta smooth muscle membrane); conditions: 1.1 μM of the test compound, porcine aorta smooth muscle membrane, 25° C, 4 hours; for inhibition at 1.1 µM: read-out: 125I-endothelin-1 binding inhibition, Inhibition (%)
T1 construct: from tissue; host or cells: smooth muscle tissue of porcine aorta (membrane fraction)
T1 sequence (Q29010 21-427): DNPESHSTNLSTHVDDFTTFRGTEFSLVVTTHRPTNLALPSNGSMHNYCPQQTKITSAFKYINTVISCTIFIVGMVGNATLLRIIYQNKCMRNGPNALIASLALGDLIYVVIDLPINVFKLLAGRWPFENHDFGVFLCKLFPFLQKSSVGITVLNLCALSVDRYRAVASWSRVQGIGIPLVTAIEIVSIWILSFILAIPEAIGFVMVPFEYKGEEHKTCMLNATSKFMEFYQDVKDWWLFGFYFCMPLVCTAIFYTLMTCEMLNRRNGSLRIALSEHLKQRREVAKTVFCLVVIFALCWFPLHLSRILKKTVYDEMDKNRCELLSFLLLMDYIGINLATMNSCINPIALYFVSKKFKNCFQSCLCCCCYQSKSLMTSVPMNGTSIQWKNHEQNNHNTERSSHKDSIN
Outline: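 Porcine aortic smooth muscle membranes incubated with ^125I-endothelin-1 (12000-18000 cpm) and test compound at 1.1 μM final in Tris/HCl pH 7.4 with protease inhibitors and 0.1% BSA, 4 h at 25 °C. Filter-bound radioactivity counted, nonspecific binding defined with 0.2 μM endothelin-1; % binding inhibition in triplicate.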

[5] = tested on: isolated porcine coronary artery (endothelin-1-induced contraction); test: Activities against endothelin-induced contraction of isolated porcine coronary arteries; parameters: species or system pig; conditions: for shift of the concentration-response curve of endothelin-1: added 20 minutes prior to endothelin-1
Method: Activities against endothelin-induced contraction of isolated procine coronary arteries
The coronary artery of pig was extracted, and a spiral preparation having a width of 1 mm and a length of 10 mm was prepared therefrom. The preparation having the endothelial cells denuded, was hanged in a 5 ml organ bath filled wit a Krebs.Henseleit solution saturated with a gas mixture of 95% O2 and 5% CO2, and the change in the tension was isometrically measured and recorded.
as §1

[6] = tested on: mice (endotoxin-induced mortality); test: Endotoxin shock: endotoxin-induced mortality in mice; type: in vivo, mouse; conditions: for Survived number/number of the tested animals / survival rate (%): compound 100 × 2 mg/kg i.p.
Method: (§2) Activities against an endotoxin shock
(§3) To a male ddy mouse, endotoxin (Lipopolysaccharide derived from E. coli 055:B5) dissolved in a 0.15% sodium hydrogencarbonate aqueous solution, was intravenously administered via the tail vein at a dose of 30 mg/kg, whereupon a distinct body temperature lowering effect was observed.
The intravenous administration of endotoxin via the tail vein at a high dose (100 mg/kg) killed mice in all cases (10/10) within 48 hours.

[7] = tested on: male ddy mouse (endotoxin-induced body temperature lowering); test: Endotoxin shock: endotoxin-induced body temperature lowering in mice; type: in vivo; conditions: endotoxin 30 mg/kg i.v., compound 100 mg/kg i.p. 30 minutes prior to and 30 minutes subsequent to endotoxin
Method: as §2, §3

[8] = 24 hr after endotoxin (100 mg/kg i.v.)
[9] = 48 hr after endotoxin (100 mg/kg i.v.)
[10] = 96 hr after endotoxin (100 mg/kg i.v.)

For “cyclo(-DTro-DCys(O3 Na)-Pro-DVal-Leu-) [Example 3]”, the “effect on the maximum response to endothelin-1” value [1] was “did not affect the maximum response”, the “shift of the concentration-response curve for endothelin-1” value ([1]; added 20 minutes prior to endothelin-1) was “remarkably shifted the concentration-response curve for endothelin-1 to the right” and the “effect on the maximum response to endothelin-1” value ([2]; compound 6 μM) was “did not affect the maximum response”. For the same molecule, the “shift of the concentration-response curve for endothelin-1” value ([2]; compound 6 μM) was “remarkably shifted the concentration-response curves for endothelin-1 to the right”, the “effect on the maximum response to endothelin-1 (perfusion pressure)” value ([3]; compound 1 μM) was “did not affect the maximum response” and the “shift of the concentration-response curve for endothelin-1 (perfusion pressure)” value ([3]; compound 1 μM in the perfusate from 20 minutes prior to endothelin-1, Langendorff) was “moved the concentration-response curve for endothelin-1 to the right”. The “125I-endothelin-1 binding inhibition, Inhibition (%)” value [4] was 85%, the “effect on the maximum response to endothelin-1” value ([5]; compound 2 μM) was “did not affect the maximum response” and the “shift of the concentration-response curve of endothelin-1” value (“shift … of endothelin-1” below) ([5]; compound 2 μM) was “remarkably shifted the concentration-response curves of endothelin-1 to the right”.
In the case of `CC(C)C[C@@H]1NC(=O)[C@@H](C(C)C)NC(=O)[C@H](C)NC(=O)[C@@H](CC(=O)O)NC(=O)[C@@H](Cc2c[nH]c3ccccc23)NC1=O` [Example 12, cyclo(-DTrp-DAsp-Ala-DVal-Leu-)] (cyclo(A[dV]L[dW][dD])), the inhibition at 1.1 µM [4] is reported as 75%, the “effect on the maximum response to endothelin-1” value ([5]; compound 3 μM) is reported as “did not affect the maximum response” and the “shift … of endothelin-1” value ([5]; compound 3 μM) is reported as “remarkably shifted the concentration-response curves of endothelin-1 to the right”.
With `CC(C)C[C@@H]1NC(=O)[C@@H](C(C)C)NC(=O)[C@@H]2CCCN2C(=O)[C@@H](CC(=O)O)NC(=O)[C@@H](Cc2c[nH]c3ccccc23)NC1=O` [Example 15, cyclo(-DTrp-DAsp-Pro-DVal-Leu-)] (cyclo(L[dW][dD]P[dV])) the “Survived number/number of the tested animals” value (shortened to “Survived number/number”) [6, 8] was 10/10, the “survival rate (%)” value [6, 8] was 100% and the “Survived number/number” value [6, 9] was 6/10. For the same molecule, the “survival rate (%)” value [6, 9] was 60%, the “Survived number/number” value [6, 10] was “five cases out of ten cases survived and 5/10” and the “survival rate (%)” value [6, 10] was 50%. For the same molecule, the “effect on endotoxin-induced mortality” value ([6]; endotoxin 100 mg/kg i.v., compound 100 mg/kg i.p. 30 minutes before and after endotoxin) was “a distinct reduction in the mortality was observed”, the “effect on the maximum response to endothelin-1” value ([2]; compound 2 μM) was “did not affect the maximum response” and the “shift of the concentration-response curve for endothelin-1” value ([2]; compound 2 μM) was “remarkably shifted the concentration-response curves for endothelin-1 to the right”. For the same molecule, the “effect on the endotoxin-induced body temperature lowering” value [7] was “showed remarkable antagonistic activities against the endotoxin-induced body temperature lowering effect”, the inhibition at 1.1 µM [4] was 85% and the “effect on the maximum response to endothelin-1” value ([5]; compound 2 μM) was “did not affect the maximum response”. For the same molecule, the “shift … of endothelin-1” value ([5]; compound 2 μM) was “remarkably shifted the concentration-response curves of endothelin-1 to the right”.
Work on `CC(C)C[C@@H]1NC(=O)[C@@H](c2cccs2)NC(=O)CN(C2CCCC2)C(=O)[C@@H](CC(=O)O)NC(=O)[C@@H](Cc2c[nH]c3ccccc23)NC1=O` [Example 73, cyclo(-DTrp-DAsp-CpGly-DThg-Leu-)] (cyclo(L[dW][dD][Gly(N-cPent)][dGly(2-thienyl)])) yielded an inhibition at 1.1 µM [4] of 85%.
Molecule `CC(C)C[C@@H]1NC(=O)[C@@H](C(C)C)NC(=O)CCNC(=O)[C@@H](CC(=O)O)NC(=O)[C@@H](Cc2c[nH]c3ccccc23)NC1=O` [Example 66, cyclo(-DTro-DAsp-β-Ala-DVal-Leu-)] (cyclo(L[dW][dD][βAla][dV])) has an inhibition at 1.1 µM [4] of 38%.

From patent US5114918A, “Endothelin antagonistic cyclic pentapeptides” (Banyu Pharmaceutical Co., Ltd., priority 1989, dated 1992)
